Assay results from patent US20220307066A1, “AN ENZYMATIC ASSAY TO MEASURE LONG-TERM ADHERENCE TO PRE EXPOSURE PROPHYLAXIS AND ANTIRETROVIRAL THERAPY” (University of Washington, priority 2019, published 2022).
Values joined by “and” are separate entries in the source; they are usually repeats but may differ in a detail not shown here. Equal values may be shown once. Read-outs that look alike come from different tables or passages of the source.

Experiments:
[1] = target: T1, HIV-1 RT (Human immunodeficiency virus type 1 group M subtype B, UniProt P04585); experiment: RESTRICT assay with TFV-DP spiked in diluted whole blood (0.25% final); assay type: biochemical; conditions: 0.25% blood, 100 nM dNTP, N = 4
T1 construct: Recombinant reverse transcriptase protein obtained through the NIH AIDS Reagent Program; purchased NIH AIDS Reagent Program, Division of AIDS, NIAID, NIH
Protocol: [sequence] assays were conducted with TFV-DP (166403-66-3, BOC Sciences Inc.) using 5 μL of DNA template, 5 μL of primer, 20 μL of dNTPs solution, 5 μL of TFV-DP, and 5 μL of HIV-1 RT. […] Serial dilutions of TFV-DP in buffer spanning a concentration range of 1-10,000 nM were prepared to span two orders of magnitude above and below the clinically relevant range for adherence measurement as described in pharmacokinetic studies. […] [sequence] assay optimization experiments were completed at 100, 300, 1560, and 6250 nM dNTP concentration.
Fluorescence from [sequence] assay data was normalized to allow comparison of data points gathered at different dNTP concentrations as follows,
HIV-negative, human whole blood (BioIVT, Westbury, N.Y.) was diluted in nuclease-free water (3098, Sigma) to lyse RBCs and reduce unwanted inhibition of RT activity by blood components such as immunoglobulins. Blood was mixed with the water by vortexing and incubating for 5 minutes to lyse RBCs.
Five μL of TFV-DP were spiked in 2% blood to 35 μL of master mix so that the final concentration of blood in the [sequence] assay was 0.25%. […]

[2] = target: T1, HIV-1 RT; experiment: RESTRICT assay with TFV-DP in buffer at different dNTP concentrations; assay type: biochemical; conditions: 100, 300, 1560, 6250 nM dNTP, fixed 50 to 1 dNTP to template
Protocol: Optimal assay conditions were determined for RT activity in order to minimize assay time and reagent concentration, using RT enzyme obtained through the NIH AIDS Reagent Program, Division of AIDS, NIAID, NIH (Le Grice, S. F. J.; et al., Purification and Characterization of Human Immunodeficiency Virus Type 1 Reverse Transcriptase. In Methods in Enzymology; DNA Replication; Academic Press, 1995, 262, 130-144). Reactions were carried out in a buffer containing: 60 mM Tris (77-86-1, Sigma), 30 mM KCl (7447-40-7, Sigma), 8 mM MgCl2 (7786-30-3, Sigma), and 10 mM dithiothreitol (20-265, Sigma) buffered to pH 8.0 using HCl (7647-01-0, Acros Organics).
The DNA template has a 20 nt primer binding site complementary to the M13 phage DNA primer AGAGTTTGATCCTGGCTCAG (Catalog, Integrated DNA Technologies, Coralville, Iowa), set forth herein as SEQ ID NO:1, followed by TTCA repeats with a total template length of 200 nt. The DNA template was designed using NUPACK software (Zadeh, J. N. et al., NUPACK: Analysis and Design of Nucleic Acid Systems. J. Comput. Chem. 2011, 32 (1), 170-173) to preferentially include T bases because TFV-DP is a deoxyadenosine triphosphate (dATP) analog and thus will bind to T's in the DNA template. […]
Fluorescence from RESTRICT assay data was normalized to allow comparison of data points gathered at different dNTP concentrations as follows, […]

[3] = target: T1, HIV-1 RT; experiment: RESTRICT assay on whole blood of study participants (clinical samples); assay type: biochemical
From the text: The RESTRICT assay detects TFV-DP drug concentrations based on its mechanism of action on HIV RT. See examples above and Olanrewaju AO, et al. An enzymatic assay for rapid measurement of antiretroviral drug levels. ACS Sens. April 2020. TFV-DP causes chain termination when HIV RT synthesizes viral double stranded DNA (dsDNA). The RESTRICT assay provides all the reagents required for dsDNA synthesis—a DNA template, primers, nucleotides, recombinant HIV RT enzyme, and appropriate buffers—and measures TFV-DP concentrations in a patient's blood using intercalating fluorescence dyes based on the extent of DNA synthesis. At low TFV-DP concentrations, full-length dsDNA is formed and binds to many intercalating dye molecules resulting in high fluorescence. Meanwhile, at high TFV-DP concentrations, DNA chain termination occurs resulting in dsDNA fragments that bind to few intercalating dye molecules resulting in low fluorescence. Thus, the fluorescence readout from the RESTRICT assay was used to estimate TFV-DP concentration in a patient's blood. […]
The RESTRICT assay was completed in 5 simple steps. […] Then 5 μL of 100 nM of HIV-1 RT was added to initiate the assay which was incubated at 37° C. for 30 min in a microplate reader (SpectraMax iD3, Molecular Devices). […]

[4] = in vivo
[5] = cited from earlier work

| Compound | Normalized fluorescence (%) ([1]; TFV-DP 85.4 nM (16.9 fmol/10^6 RBCs, low adherence, 1 dose per week)) | Normalized fluorescence (%) ([1]; TFV-DP 768 nM (152.3 fmol/10^6 RBCs, high adherence, 7 doses per week)) | IC50 of inhibition curve as dNTP concentration increases [2] | Median fluorescence, RESTRICT assay ([3]; samples containing <700 fmol/punch TFV-DP (N=14)) [%] | Median fluorescence, RESTRICT assay ([3]; samples containing ≥700 fmol/punch TFV-DP (N=4)) [%] | clinical range for TFV-DP adherence, concentration in whole blood [4] [nM] | Median TFV-DP concentrations in RBCs ([5]; depending on adherence, LC/MS) | accumulation in red blood cells (RBCs) ([5]; in vivo) [fold] | half-life ([5]; red blood cells) [h] | half-life ([5]; plasma) | detectable for up to ([5]; urine) [days] |
| --- | --- | --- | --- | --- | --- | --- | --- | --- | --- | --- | --- |
| CC(Cn1cnc2c(N)ncnc21)OCP(=O)(O)OP(=O)(O)OP(=O)(O)O (stereo in doubt) [TFV-DP, tenofovir diphosphate] | 89.0 | 57.5 | shift right, towards higher IC50 values | 51.3 | 31.9 | 75 to 850 | 15-170 fmol/10^6 RBCs | 25 | 408 |  |  |
| C[C@H](Cn1cnc2c(N)ncnc21)OCP(=O)(O)O [TFV, tenofovir] |  |  |  |  |  |  |  |  |  | 15 h and 17 h | ≤ 7 |
